Measured values as given in ChEMBL document CHEMBL1153134, “Dammarane-type saponins from the flower buds of Panax ginseng and their effects on human leukemia cells” (Bioorg Med Chem Lett, 2010).
pIC50: −log10 of the molar value. Active and inactive are the calls of the source. The rule behind the calls is not given here.

Experiments:
HL-60 [1] = test: Induction of apoptosis in human HL60 cells assessed as DNA accumulation at sub-G1 phase at IC50 concentration after 24 hrs by flow cytometry; assay type: functional
HL-60 [2] = test: Cytotoxicity against human HL60 cells by MTT assay; assay type: functional, cell-based
HL-60 [3] = test: Induction of apoptosis in human HL60 cells assessed as increase of apoptotic bodies at IC50 concentration after 24 hrs using Hoechst 33342 staining by fluorescent microscopic analysis; assay type: functional, cell-based
HaCaT = test: Inhibition of ultraviolet-B-induced apoptosis in human HaCaT cells; assay type: functional, cell-based

`C=C(C)C(=O)CC[C@](C)(O[C@@H]1O[C@H](CO)[C@@H](O)[C@H](O)[C@H]1O)[C@H]1CC[C@]2(C)[C@@H]1[C@H](O)C[C@@H]1[C@@]3(C)CC[C@H](O)C(C)(C)[C@@H]3[C@@H](O)C[C@]12C` [FLORALGINSENOSIDE TA] was tested, and the Activity (HL-60 [1]) was 29.8%, the pIC50 (HL-60 [2]) was 4.44 and the Activity (HL-60 [3]) was “Active”.

`COC(CC[C@](C)(O[C@@H]1O[C@H](CO)[C@@H](O)[C@H](O)[C@H]1O)[C@H]1CC[C@]2(C)[C@@H]1[C@H](O)C[C@@H]1[C@@]3(C)CC[C@H](O)C(C)(C)[C@@H]3[C@@H](O)C[C@]12C)OC` [FLORALGINSENOSIDE TB] showed a pIC50 (HL-60 [2]) of 4.00.

With `C=C(C)C(CC[C@](C)(O[C@@H]1O[C@H](CO[C@@H]2OC[C@H](O)[C@H](O)[C@H]2O)[C@@H](O)[C@H](O)[C@H]1O)[C@H]1CC[C@]2(C)[C@@H]1[C@H](O)C[C@@H]1[C@@]3(C)CC[C@H](O[C@@H]4O[C@H](CO[C@@H]5O[C@H](CO)[C@@H](O)[C@H](O)[C@H]5O)[C@@H](O)[C@H](O)[C@H]4O)C(C)(C)[C@@H]3[C@@H](O)C[C@]12C)OO` (some centres undefined) [FLORALGINSENOSIDE TC] the pIC50 (HL-60 [2]) was 4.00.

In the case of `C=C(C)C(CC[C@](C)(O[C@@H]1O[C@H](COC2OC[C@H](O)[C@H](O)[C@H]2O)[C@@H](O)[C@H](O)[C@H]1O)[C@H]1CC[C@]2(C)[C@@H]1[C@H](O)C[C@@H]1[C@@]3(C)CC[C@H](O[C@@H]4O[C@H](COC5O[C@H](CO)[C@@H](O)[C@H](O)[C@H]5O)[C@@H](O)[C@H](O)[C@H]4O)C(C)(C)[C@@H]3[C@@H](O)C[C@]12C)OO` (some centres undefined) [FLORALGINSENOSIDE TD], the pIC50 (HL-60 [2]) was 4.00.

In the case of `CC(C)=CCC[C@](C)(O[C@@H]1O[C@H](CO)[C@@H](O)[C@H](O)[C@H]1O)[C@H]1CC[C@]2(C)[C@@H]1[C@H](O)C[C@@H]1[C@@]3(C)CC[C@H](O)C(C)(C)[C@@H]3[C@@H](O)C[C@]12C` [GINSENOSIDE F1], the Activity (HL-60 [1]) was 19.2%, the pIC50 (HL-60 [2]) was 4.63 and the Activity (HL-60 [3]) was “Active”. The Activity (HaCaT) was “Active”.

For `CC(C)=CCC[C@](C)(O[C@@H]1O[C@H](CO[C@H]2O[C@H](CO)[C@@H](O)[C@@H]2O)[C@@H](O)[C@H](O)[C@H]1O)[C@H]1CC[C@]2(C)[C@@H]1[C@H](O)C[C@@H]1[C@@]3(C)CC[C@H](O)C(C)(C)[C@@H]3[C@@H](O)C[C@]12C` [GINSENOSIDE F5], the Activity (HL-60 [1]) was 21.4%, the pIC50 (HL-60 [2]) was 4.20 and the Activity (HL-60 [3]) was “Active”.

Compound `O=C1c2c(O)ccc(O)c2C(=O)c2c(NCCNCCO)ccc(NCCNCCO)c21` [MITOXANTRONE] has a pIC50 (HL-60 [2]) of 5.17.
